Results: patent US9938562B2, “Naphthalene derived chromogenic enzyme substrates” (Glycosynth Limited, priority 2013, dated 2018)
Counter-ions that a name gives are not always drawn.

Key:
Assay type in all cases: cell-based
[1] = test system: Bacillus subtilis NCTC 9372; test: Agar plate multi-point inoculation, colour
[2] = test system: Escherichia coli NCTC 10418; test: Agar plate multi-point inoculation, colour
[3] = test system: E. faecium NCTC 7171; test: Glucuronide screen, broth containing FAC; details: E. faecium NCTC 7171, broth
[4] = test system: clinical isolates of E. coli
[5] = test system: Shigella sonnei; test: Broth medium with ONPG (dual chromogenic system); details: combination with ONPG
Experimental: (§1) The two indoxyl glucuronides used produce insoluble endpoints following hydrolysis, as does the CPS ID 3 medium. It was therefore necessary to test these two substrates on agar plates. In contrast, DHN-β-D-glucuronide (12) gives a much more soluble endpoint best suited to liquid media and was therefore tested in a broth medium. The broth was prepared using proteose peptone (2 g), NaCl (1 g) and FAC (100 mg) in DI water (180 mL). This mixture was autoclaved and cooled to room temperature before being dispensed into bijoux (100×1.8 mL). DHN-β-D-glucuronide CHA salt (12a) (60 mg) was dissolved in water (20 mL) and filtered to sterilize before being aseptically dispensed into successive bijoux (0.2 mL) containing the broth solution. The broth/substrate solutions were then inoculated with bacterial suspensions made up to 0.5 McFarland standard (2 μL per bijoux). X-β-D-glucuronide CHA salt (Glycosynth Ltd, Warrington, UK) (10 mg) was dissolved in NMP (200 μL). […]
(§2) Because many E. coli produce both β-D-glucuronidase and β-D-galactosidase, DHN-β-D-glucuronide (12a) was tested as in the broth medium described above but in the presence of ONPG (at a concentration of 1.5 g/L). […] The colour of these solutions of mixed chromogens could be very readily distinguished with the unaided eye from the yellow colour of those strains, such as E. cloacae, that produced β-D-galactosidase only. […]

[6] = test system: E. coli expressing both β-D-glucuronidase and β-D-galactosidase; test: Broth medium with ONPG (dual chromogenic system); details: broth with FAC, ONPG 1.5 g/L
Experimental: as §1, §2

[7] = test system: Candida albicans ATCC 90028; details: Columbia agar, FAC 500 mg/L, substrate 300 mg/L, 37° C. 18 h in air
[8] = test system: Morganella morganii 462403 (wild); test: Agar plate multi-point inoculation, colour; details: Columbia agar, FAC 500 mg/L, substrate 300 mg/L, 37° C. 18 h in air
[9] = test system: Yersinia enterocolitica NCTC 11176; test: Agar plate multi-point inoculation, colour; details: Columbia agar, FAC 500 mg/L, substrate 300 mg/L, 37° C. 18 h in air
[10] = test system: Staphylococcus aureus NCTC 6571; test: Agar plate multi-point inoculation, colour
[11] = test system: Enterococcus faecalis NCTC 775; test: Agar plate multi-point inoculation, colour
[12] = test system: Staphylococcus aureus (MRSA) NCTC 11939; test: Agar plate multi-point inoculation, colour; details: Columbia agar, FAC 500 mg/L, substrate 300 mg/L, 37° C. 18 h in air
[13] = test system: Pseudomonas aeruginosa NCTC 10662; test: Agar plate multi-point inoculation, colour
[14] = test system: Citrobacter freundii NCTC 9750 or 46262; test: Agar plate multi-point inoculation, colour; details: Columbia agar, FAC 500 mg/L, substrate 300 mg/L, 37° C. 18 h in air
[15] = test system: Providencia rettgeri NCTC 7475; test: Agar plate multi-point inoculation, colour
[16] = test system: Enterobacter cloacae NCTC 11936; test: Agar plate multi-point inoculation, colour
[17] = test system: Burkholderia cepacia 1222; test: Agar plate multi-point inoculation, colour; details: Columbia agar, FAC 500 mg/L, substrate 300 mg/L, 37° C. 18 h in air
[18] = test system: Steptococcus pyogenes NCTC 8306; test: Agar plate multi-point inoculation, colour
[19] = test system: Serratia marcescens NCTC 10211; test: Agar plate multi-point inoculation, colour
[20] = test system: Candida glabrata NCPF 3943; test: Agar plate multi-point inoculation, colour
[21] = test system: Enterococcus faecium NCTC 7171; test: Agar plate multi-point inoculation, colour
[22] = test system: E. cloacae; test: Glucuronide screen, broth containing FAC
[23] = test system: Salmonella typhimurium NCTC 74; test: Agar plate multi-point inoculation, colour
[24] = test system: Staphylococcus epidermidis NCTC 11047; test: Agar plate multi-point inoculation, colour
[25] = test system: E. faecalis NCTC 775; test: Glucuronide screen, broth containing FAC; details: E. faecalis NCTC 775, broth
[26] = test system: Listeria monocytogenes NCTC 11994; test: Agar plate multi-point inoculation, colour

O=C(O)C1OC(Oc2cc3ccccc3cc2O)C(O)C(O)C1O [Compound 12a, DHN-β-D-glucuronide CHA Salt]
Colour [1]: −
Colour [2]: ++
hydrolysis of substrate (judged by colour) [2]: strong colour
Colour [3]: −
% Sensitivity [4]: 82%
Colour [4]: Purple and −
Negative strains [4]: 18
Positive strains [4]: 82
detection of β-D-glucuronidase activity [5]: able to detect
colour of solutions [6]: purple-brown solutions
Colour [7]: −
Colour [8]: −
Colour [9]: −
Colour [10]: −
Colour [11]: −
Colour [12]: −
Colour [13]: −
Colour [14]: −
Colour [15]: −
Colour [16]: −
Colour [17]: −
Colour [18]: −
Colour [19]: −
Colour [20]: −
Colour [21]: −
Colour ([22]; E. cloacae 260329R, broth): −
Colour ([22]; E. cloacae NCTC 11936, broth): −
Colour [23]: −
Colour [24]: −
Colour [25]: −
Colour [26]: −
